In US9220672B2, “Peptide for use in the treatment of skin conditions” (ORGANOBALANCE GMBH, priority 2011, dated 2015):

What was measured:
Assay type in all cases: cell-based
S. aureus = S. aureus in vitro liquid assay (microtiter plate, OD600nm); settings: 1 mg/ml, SCD-bouillon (1:2), pH 6.5, vs control devoid of additive
Description: An S. aureus in vitro liquid assay was performed on a Microtiter plate having wells with a respective volume of 200 μl. To this effect, a 24 h cell culture of S. aureus was diluted 1:500 thus affording an optical density OD600nm of 0.05 in SCD-bouillon (1:2). One of the samples used in the experiment further contained the inventive tetrapeptide H-Lys(H-Asp-NH2)-Ala-Glu-NH2 in a concentration of 1 mg/ml. The pH of the samples was 6.5.

S. epidermidis [1] = assay: S. epidermidis in vitro liquid assay (microtiter plate, OD600nm); settings: SCD-bouillon (1:2), pH 6.5, vs control devoid of additive
Description: A Microtiter plate having wells with a respective volume of 200 μl was used for the S. epidermidis in vitro liquid assay. To this effect, a 24 h cell culture of S. epidermidis was diluted 1:200 thus affording an optical density OD600nm of 0.06 in SCD-bouillon (1:2). The samples used in the experiment further contained the inventive tetrapeptide H-Lys(H-Asp-NH2)-Ala-Glu-NH2 in respective concentrations of 1 mg/ml and 0.2 mg/ml. As control assay, samples containing 1 mg/ml of a mixture containing Alanine, Glutamine, Lysine, and Asparagine in equal parts and samples containing no further components in addition to S. epidermidis were respectively employed. The pH of all of the samples was 6.5.

S. epidermidis [2] = assay: S. epidermidis growth stimulation, in-vitro hole plate assay on tellurite-TSA; settings: 40 μl of 1 mg/ml solution per well, 35° C., 24 h, vs water control
Description: To this effect, an S. epidermidis growth simulation assay was employed, using potassium tellurite as the growth indicator, observed in the assay as brown zones. An S. epidermidis log phase culture at 1:200 (containing approximately 1×10^7 cfu/ml of bacteria) was used as the working culture in the experiment.
The working culture was plated onto tellurite-TSA, after which 5 mm diameter holes were respectively punched into the agar for forming the testing wells. 40 μl of a solution containing the tetrapeptide at a concentration of 1 mg/ml were then added to a first and second well, and the same volume of water was added as the control to a third well. The Petri dish was then incubated at 35° C. for 24 h.

`CC(NC(=O)C(N)CCCCNC(=O)CC(N)C(N)=O)C(=O)NC(CCC(=O)O)C(N)=O` (stereo not drawn) [H-Lys(H-Asp-NH2)-Ala-Glu-NH2] was tested, and the “growth of S. aureus (optical density OD600nm over incubation time)” value (S. aureus) was “clearly inhibited”, the “growth of S. epidermidis (optical density OD600nm over incubation time)” value (S. epidermidis [1]; 0.2 mg/ml) was “stimulation is already apparent” and the “growth of S. epidermidis (optical density OD600nm over incubation time)” value (S. epidermidis [1]; 1 mg/ml) was “clearly stimulates the growth”. For the same compound, the “growth of S. epidermidis (tellurite growth indicator zone around well)” value (S. epidermidis [2]) was “able to stimulate the growth” and the “growth of S. epidermidis (tellurite growth indicator zone around well)” value (S. epidermidis [2]; listed as inventive tetrapeptide) was “clearly stimulated”.
